{"source": "ChEMBL document CHEMBL1201862", "about": "“PubChem BioAssay data set” (2004)", "key": {"[1]": {"target": "T1, Histone-lysine N-methyltransferase NSD2 (Homo sapiens, UniProt O96028)", "T1 sequence (O96028 whole entry)": "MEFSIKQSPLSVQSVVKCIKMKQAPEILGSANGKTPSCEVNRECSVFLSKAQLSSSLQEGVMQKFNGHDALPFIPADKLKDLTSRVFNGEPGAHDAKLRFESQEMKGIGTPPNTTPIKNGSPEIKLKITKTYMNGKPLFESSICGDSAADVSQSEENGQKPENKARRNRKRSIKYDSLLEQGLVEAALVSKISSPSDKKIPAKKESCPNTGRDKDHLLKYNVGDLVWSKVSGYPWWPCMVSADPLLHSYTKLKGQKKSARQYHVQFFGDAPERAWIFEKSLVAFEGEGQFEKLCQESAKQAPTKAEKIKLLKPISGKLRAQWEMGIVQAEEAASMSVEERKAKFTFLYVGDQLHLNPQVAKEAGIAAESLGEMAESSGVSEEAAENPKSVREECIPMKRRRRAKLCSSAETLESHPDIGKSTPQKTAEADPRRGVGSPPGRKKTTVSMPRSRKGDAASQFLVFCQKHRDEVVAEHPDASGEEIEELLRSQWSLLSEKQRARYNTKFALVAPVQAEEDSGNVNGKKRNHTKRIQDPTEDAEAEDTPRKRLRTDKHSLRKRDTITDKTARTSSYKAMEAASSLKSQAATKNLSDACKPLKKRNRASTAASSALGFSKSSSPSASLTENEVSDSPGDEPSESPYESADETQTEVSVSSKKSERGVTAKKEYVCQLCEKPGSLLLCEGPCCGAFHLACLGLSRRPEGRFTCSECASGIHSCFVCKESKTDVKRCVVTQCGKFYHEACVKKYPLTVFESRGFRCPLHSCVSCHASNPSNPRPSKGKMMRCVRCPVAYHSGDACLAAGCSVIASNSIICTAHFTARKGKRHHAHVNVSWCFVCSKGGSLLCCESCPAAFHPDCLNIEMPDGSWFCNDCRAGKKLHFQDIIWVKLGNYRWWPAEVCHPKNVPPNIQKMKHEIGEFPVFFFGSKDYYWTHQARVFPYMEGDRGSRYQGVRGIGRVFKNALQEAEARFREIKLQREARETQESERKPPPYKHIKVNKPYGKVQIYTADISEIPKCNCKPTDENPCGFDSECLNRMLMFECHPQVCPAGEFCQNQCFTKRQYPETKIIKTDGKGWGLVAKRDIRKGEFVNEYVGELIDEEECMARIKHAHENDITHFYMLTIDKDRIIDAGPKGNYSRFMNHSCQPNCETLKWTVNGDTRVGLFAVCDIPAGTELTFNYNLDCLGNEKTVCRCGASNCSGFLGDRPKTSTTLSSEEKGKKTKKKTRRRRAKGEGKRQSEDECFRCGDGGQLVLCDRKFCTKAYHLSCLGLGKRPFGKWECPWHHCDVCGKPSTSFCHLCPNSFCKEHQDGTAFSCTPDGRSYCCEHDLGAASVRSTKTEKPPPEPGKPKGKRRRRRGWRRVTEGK", "type": "biochemical"}, "[2]": {"target": "DNA repair and recombination protein RAD54-like (Homo sapiens, UniProt Q92698)", "sequence (Q92698 whole entry)": "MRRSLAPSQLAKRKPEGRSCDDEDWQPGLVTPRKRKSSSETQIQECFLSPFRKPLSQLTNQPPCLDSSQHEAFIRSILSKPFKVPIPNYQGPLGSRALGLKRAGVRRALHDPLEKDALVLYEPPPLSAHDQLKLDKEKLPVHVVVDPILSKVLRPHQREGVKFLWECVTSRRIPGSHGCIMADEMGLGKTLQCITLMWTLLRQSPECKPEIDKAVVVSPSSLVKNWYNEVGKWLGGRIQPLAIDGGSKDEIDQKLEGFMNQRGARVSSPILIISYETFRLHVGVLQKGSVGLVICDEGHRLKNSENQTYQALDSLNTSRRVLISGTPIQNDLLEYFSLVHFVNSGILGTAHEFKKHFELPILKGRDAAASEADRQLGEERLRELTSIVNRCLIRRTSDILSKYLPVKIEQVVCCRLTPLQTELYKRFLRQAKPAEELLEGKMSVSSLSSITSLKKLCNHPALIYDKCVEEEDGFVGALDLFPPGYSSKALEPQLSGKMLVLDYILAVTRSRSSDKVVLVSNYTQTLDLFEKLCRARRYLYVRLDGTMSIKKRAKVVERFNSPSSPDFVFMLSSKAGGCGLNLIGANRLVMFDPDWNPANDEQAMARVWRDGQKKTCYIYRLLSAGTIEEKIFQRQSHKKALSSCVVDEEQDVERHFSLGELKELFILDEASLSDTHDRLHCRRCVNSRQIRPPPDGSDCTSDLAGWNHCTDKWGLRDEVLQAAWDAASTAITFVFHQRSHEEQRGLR", "assay": "RAD54 Holliday junction migration blockers – biochemical, fluorescence, cherry-picked samples, dose series, confirmation (AID 651657)", "type": "functional"}, "[3]": {"target": "Ras and Rab interactor 1/Tyrosine-protein kinase ABL1 (Homo sapiens, UniProt P00519+Q13671)", "sequence (P00519 whole entry)": "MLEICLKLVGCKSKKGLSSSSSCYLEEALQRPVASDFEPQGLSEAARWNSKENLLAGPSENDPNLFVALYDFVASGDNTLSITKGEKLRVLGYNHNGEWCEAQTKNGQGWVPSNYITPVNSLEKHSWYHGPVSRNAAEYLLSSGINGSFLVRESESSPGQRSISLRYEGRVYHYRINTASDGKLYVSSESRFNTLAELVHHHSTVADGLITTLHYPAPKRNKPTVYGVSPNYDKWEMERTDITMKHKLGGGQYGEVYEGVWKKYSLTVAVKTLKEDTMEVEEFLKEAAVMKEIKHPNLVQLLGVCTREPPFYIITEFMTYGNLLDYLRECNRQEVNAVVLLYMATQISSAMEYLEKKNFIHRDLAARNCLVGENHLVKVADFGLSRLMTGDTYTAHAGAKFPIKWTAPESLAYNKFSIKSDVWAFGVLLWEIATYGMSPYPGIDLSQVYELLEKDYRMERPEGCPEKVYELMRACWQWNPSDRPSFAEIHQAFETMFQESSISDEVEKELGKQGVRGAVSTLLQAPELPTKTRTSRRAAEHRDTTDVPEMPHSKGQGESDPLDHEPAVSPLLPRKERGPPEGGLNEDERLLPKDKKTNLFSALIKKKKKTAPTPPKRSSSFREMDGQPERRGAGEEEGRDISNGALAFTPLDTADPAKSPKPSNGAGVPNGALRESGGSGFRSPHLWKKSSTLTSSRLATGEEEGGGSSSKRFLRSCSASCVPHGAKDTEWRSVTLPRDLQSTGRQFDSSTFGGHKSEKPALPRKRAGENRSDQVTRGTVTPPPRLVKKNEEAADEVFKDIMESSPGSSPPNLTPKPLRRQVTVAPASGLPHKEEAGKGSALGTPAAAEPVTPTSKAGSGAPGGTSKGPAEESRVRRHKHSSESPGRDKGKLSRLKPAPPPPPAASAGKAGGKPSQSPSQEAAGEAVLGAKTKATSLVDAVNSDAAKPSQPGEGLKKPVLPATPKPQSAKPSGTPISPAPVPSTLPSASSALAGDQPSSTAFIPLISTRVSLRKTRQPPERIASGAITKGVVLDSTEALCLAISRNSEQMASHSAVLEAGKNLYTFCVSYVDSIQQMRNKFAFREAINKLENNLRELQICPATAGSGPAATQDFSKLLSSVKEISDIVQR", "sequence (Q13671 whole entry)": "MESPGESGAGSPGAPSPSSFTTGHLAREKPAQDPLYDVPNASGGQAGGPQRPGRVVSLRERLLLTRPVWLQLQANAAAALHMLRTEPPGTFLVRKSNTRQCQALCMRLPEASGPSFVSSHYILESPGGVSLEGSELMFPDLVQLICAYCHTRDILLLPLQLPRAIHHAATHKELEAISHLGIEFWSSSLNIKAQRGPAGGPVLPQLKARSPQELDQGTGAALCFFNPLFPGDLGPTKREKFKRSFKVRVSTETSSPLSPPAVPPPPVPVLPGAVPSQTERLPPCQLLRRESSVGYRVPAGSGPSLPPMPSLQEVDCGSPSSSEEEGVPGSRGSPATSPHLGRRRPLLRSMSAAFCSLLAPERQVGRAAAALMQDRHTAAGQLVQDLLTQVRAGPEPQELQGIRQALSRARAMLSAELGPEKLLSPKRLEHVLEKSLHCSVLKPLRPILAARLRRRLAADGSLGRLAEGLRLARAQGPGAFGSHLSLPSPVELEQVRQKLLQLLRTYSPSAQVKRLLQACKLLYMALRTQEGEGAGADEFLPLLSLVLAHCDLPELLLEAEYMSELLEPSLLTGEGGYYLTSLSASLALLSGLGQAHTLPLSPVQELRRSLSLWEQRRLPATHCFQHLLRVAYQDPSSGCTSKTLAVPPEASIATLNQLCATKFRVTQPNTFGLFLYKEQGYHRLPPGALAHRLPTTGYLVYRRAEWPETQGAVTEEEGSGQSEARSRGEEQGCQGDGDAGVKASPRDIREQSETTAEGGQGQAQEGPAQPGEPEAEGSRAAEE", "type": "functional"}, "[4]": {"target": "72 kDa type IV collagenase (Homo sapiens, UniProt P08253)", "sequence (P08253 whole entry)": "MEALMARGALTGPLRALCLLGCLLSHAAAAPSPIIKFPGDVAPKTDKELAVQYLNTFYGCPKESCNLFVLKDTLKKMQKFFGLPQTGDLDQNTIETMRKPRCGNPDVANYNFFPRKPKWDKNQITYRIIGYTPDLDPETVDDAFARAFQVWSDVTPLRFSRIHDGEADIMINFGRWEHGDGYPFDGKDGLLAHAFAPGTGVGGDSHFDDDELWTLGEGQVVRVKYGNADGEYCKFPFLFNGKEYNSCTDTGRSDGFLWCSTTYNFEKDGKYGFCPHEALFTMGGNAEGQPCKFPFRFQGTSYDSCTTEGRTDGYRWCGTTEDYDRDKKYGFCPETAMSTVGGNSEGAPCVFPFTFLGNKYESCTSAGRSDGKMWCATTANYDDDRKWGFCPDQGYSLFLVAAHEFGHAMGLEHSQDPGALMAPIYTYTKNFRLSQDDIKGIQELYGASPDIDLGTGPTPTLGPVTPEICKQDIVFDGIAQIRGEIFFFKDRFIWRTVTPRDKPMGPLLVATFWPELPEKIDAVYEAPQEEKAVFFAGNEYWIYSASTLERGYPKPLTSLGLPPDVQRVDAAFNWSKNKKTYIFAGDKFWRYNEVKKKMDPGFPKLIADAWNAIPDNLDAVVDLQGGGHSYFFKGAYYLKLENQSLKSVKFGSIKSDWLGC", "assay": "Dose Response validation of uHTS RPN11 inhibitor hits using a MMP-2 Fluorescence assay.", "type": "functional"}, "Prothrombin": {"target": "Prothrombin (Bos taurus, UniProt P00735)", "assay": "thrombin protease inhibitors – biochemical, fluorescence polarization, uHTS hits, dose response (AID 602369)", "type": "functional"}, "Nonstructural protein 1": {"target": "Nonstructural protein 1 (Influenza A virus, UniProt Q194T2)", "sequence (Q194T2 whole entry)": "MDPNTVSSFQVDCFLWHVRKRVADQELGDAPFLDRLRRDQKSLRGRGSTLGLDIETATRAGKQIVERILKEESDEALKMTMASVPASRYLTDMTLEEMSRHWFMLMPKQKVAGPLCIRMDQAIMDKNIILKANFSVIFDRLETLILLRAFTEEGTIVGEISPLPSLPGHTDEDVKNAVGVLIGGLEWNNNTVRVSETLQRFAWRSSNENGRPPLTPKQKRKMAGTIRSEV", "type": "functional, Influenza A virus (A/California/07/2009(H1N1))"}, "[5]": {"target": "26S proteasome non-ATPase regulatory subunit 14 (Homo sapiens, UniProt O00487)", "sequence (O00487 whole entry)": "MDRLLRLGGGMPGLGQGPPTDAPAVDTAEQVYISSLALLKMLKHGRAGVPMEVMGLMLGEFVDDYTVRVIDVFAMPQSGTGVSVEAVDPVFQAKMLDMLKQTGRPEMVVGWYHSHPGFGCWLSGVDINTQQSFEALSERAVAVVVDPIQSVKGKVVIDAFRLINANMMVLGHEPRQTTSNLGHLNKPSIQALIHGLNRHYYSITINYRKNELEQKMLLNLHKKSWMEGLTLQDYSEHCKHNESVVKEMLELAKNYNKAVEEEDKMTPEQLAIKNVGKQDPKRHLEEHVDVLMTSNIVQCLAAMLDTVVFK", "assay": "inhibition of proteasome subunit RPN11 – biochemical, fluorescence polarization, uHTS hits, confirmation (AID 602368)", "type": "functional"}, "INS1": {"test_system": "INS1", "assay": "INS-1E survival protection against cytokine death – cell-based, luminescence, retest, dose response (AID 449756);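 note: cell death triggered by IL-1 beta plus TNF-alpha plus IFN-gamma mixture; protective hits raise ATP signal compared with cytokine alone wells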", "type": "functional", "details": "Rattus norvegicus, INS1"}, "[6]": {"assay": "viability of HCT116 lacking mutant beta-catenin – cell-based, human colon tumor, dose response (AID 1045);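 note: HCT116 colon tumor cells with beta catenin knocked out; cells exposed to compound for 60 hours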", "type": "functional"}, "[7]": {"assay": "viability of PTEN-deleted HCT116 cells – cell-based, HCT116 PTEN knockout, dose response (AID 1047);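 note: HCT116 colon tumor cells with PTEN knocked out; cells exposed to compound for 60 hours before readout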", "type": "functional"}, "[8]": {"target": "Heat shock protein HSP 90-alpha (Homo sapiens, UniProt P07900)", "type": "functional, organism-based"}, "Beta Lactamase": {"target": "Beta Lactamase (Pseudomonas aeruginosa, UniProt Q932Y6)", "sequence (Q932Y6 whole entry)": "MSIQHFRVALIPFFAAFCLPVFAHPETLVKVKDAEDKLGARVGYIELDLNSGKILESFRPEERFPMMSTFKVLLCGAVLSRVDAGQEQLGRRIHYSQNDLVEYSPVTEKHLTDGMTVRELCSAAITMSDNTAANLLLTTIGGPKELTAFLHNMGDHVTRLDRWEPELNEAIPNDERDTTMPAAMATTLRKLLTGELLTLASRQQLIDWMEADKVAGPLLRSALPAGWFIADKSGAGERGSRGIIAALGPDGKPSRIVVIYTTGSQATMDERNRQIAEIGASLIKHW", "assay": "BLA reporter interference, concentration series – BLA reporter cells, FRET fluorescence, artefact control for NOD2-RIPK2 interaction inhibitor project, dose response (AID 651552)", "type": "functional, cell-based"}, "[9]": {"assay": "Fluorescence-based cell-based high throughput dose response assay for inhibitors of the interaction of nucleotide-binding oligomerization domain containing 2 (NOD2) and the receptor-interacting serine-threonine kinase 2 (RIPK2).", "type": "functional", "details": "Homo sapiens"}, "[10]": {"target": "T2, Mannose-6-phosphate isomerase (Homo sapiens, UniProt P34949)", "T2 sequence (P34949 whole entry)": "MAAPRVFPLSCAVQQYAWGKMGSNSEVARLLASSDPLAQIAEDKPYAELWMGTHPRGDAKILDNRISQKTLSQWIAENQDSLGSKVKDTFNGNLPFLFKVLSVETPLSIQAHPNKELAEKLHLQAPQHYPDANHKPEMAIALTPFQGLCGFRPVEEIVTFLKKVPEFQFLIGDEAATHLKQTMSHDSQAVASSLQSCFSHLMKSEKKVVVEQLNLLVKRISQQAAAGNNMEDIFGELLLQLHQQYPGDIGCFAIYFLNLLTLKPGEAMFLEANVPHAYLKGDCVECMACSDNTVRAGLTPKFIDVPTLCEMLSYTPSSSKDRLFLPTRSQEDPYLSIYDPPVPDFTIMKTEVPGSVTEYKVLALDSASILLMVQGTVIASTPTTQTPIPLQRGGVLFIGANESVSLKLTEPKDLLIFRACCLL", "assay": "MPI inhibition at elevated mannose 6-phosphate – biochemical, fluorescence intensity, high mannose 6-phosphate, primary screen (AID 1220)"}, "[11]": {"assay": "Late stage counterscreen for inhibitors of Trypanosoma brucei methionyl tRNA synthetase (MetRS): Luminescence-based cell-based high throughput dose response assay to identify compounds that are cytotoxic to Jurkat human T lymphocyte cells.", "type": "functional"}, "[12]": {"target": "T3, Methionyl-tRNA synthetase, putative (Trypanosoma brucei brucei, UniProt Q38C91)", "T3 sequence (Q38C91 whole entry)": "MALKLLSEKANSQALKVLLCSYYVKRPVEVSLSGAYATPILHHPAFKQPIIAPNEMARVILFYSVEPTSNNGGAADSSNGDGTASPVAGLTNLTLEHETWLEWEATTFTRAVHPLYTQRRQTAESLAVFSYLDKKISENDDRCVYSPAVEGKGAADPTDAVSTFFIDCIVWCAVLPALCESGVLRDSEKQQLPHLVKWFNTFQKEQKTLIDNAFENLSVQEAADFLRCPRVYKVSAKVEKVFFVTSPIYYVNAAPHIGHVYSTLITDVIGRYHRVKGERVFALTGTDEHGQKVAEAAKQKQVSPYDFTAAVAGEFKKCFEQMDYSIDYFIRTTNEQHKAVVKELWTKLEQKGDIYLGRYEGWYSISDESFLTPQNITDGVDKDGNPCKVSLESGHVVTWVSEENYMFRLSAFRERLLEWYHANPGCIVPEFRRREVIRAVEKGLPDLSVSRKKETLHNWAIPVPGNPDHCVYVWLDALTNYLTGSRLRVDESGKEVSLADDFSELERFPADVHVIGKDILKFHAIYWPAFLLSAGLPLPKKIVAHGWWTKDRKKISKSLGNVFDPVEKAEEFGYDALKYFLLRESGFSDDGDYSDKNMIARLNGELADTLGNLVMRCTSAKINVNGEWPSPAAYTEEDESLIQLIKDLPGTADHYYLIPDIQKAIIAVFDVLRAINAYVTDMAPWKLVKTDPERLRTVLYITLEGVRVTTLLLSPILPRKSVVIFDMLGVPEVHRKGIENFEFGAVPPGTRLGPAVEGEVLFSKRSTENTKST", "type": "functional, Trypanosoma brucei brucei strain 927/4 GUTat10.1"}, "[13]": {"assay": "Counterscreen for inhibitors of Trypanosoma brucei methionyl tRNA synthetase (MetRS): Luminescence-based cell-based high throughput dose response assay to identify compounds that are cytotoxic to Jurkat human T lymphocyte cells.", "type": "functional"}, "[14]": {"target": "T3, Methionyl-tRNA synthetase, putative", "type": "functional, Trypanosoma brucei brucei strain 927/4 GUTat10.1", "remark": "listed apart in the source"}, "HeLa": {"test_system": "HeLa", "assay": "ATP-based viability loss in HeLa cells – cell-based, CellTiter-Glo luminescence, cherry-pick samples, cytotoxicity control for MITF activator project, dose response (AID 540259)", "type": "functional", "details": "Homo sapiens"}, "[15]": {"target": "Aryl hydrocarbon receptor (Homo sapiens, UniProt P35869)", "sequence (P35869 whole entry)": "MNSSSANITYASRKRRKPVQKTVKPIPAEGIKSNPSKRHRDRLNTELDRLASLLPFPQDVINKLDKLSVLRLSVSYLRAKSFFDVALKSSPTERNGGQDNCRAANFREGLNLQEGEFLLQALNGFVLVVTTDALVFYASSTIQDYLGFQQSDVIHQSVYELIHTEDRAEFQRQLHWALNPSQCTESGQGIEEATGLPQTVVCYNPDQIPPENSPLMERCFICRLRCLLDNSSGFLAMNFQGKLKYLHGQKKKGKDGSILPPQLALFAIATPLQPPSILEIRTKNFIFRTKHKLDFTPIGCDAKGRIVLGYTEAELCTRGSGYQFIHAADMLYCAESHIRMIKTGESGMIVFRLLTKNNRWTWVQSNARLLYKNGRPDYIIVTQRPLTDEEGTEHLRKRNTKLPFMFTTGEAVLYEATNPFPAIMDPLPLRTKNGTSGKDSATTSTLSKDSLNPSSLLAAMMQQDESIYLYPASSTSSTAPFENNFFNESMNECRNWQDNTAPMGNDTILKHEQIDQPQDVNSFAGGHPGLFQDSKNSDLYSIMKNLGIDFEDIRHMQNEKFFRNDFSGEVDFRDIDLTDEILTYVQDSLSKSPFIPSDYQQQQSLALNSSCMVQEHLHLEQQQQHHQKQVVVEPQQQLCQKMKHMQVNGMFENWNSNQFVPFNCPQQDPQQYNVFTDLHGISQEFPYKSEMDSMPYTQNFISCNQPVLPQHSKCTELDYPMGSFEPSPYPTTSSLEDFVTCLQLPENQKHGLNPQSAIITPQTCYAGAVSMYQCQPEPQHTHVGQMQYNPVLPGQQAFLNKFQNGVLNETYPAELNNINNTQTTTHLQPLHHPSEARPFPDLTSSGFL", "details": "Potency"}, "Cytochrome P450 3A4": {"target": "Cytochrome P450 3A4 (Homo sapiens, UniProt P08684)", "details": "Potency"}}, "note": "Activity calls are given as the source filed them.", "data": [{"smiles": "CCNC1CCC(Nc2ccnc3cc(Cl)ccc23)CC1", "note": "(stereo unspecified)", "values": [{"measurement": "AC50", "setting": "[1]", "value": "7.52 µM (active)"}, {"measurement": "AC50", "setting": "[2]", "value": "25.9 µM (active)"}]}, {"smiles": "Oc1nc2ccccc2n1C1CCN(C(c2nnnn2C2CCCCC2)C2CC2)CC1", "note": "(stereo unspecified)", "values": [{"measurement": "IC50", "setting": "[3]", "value": "3.14 µM (active)"}]}, {"smiles": "O=[N+]([O-])c1ccc(O)c(/C=N/NC2=NS(=O)(=O)c3ccccc32)c1", "values": [{"measurement": "IC50", "setting": "[4]", "value": "5.41 µM (active)"}, {"measurement": "IC50", "setting": "Prothrombin", "value": "36.8 µM (active)"}, {"measurement": "IC50", "setting": "Nonstructural protein 1", "value": "2.35 µM (active)"}, {"measurement": "IC50", "setting": "[5]", "value": "34.9 µM (active)"}]}, {"smiles": "CC1=C(C)/C(=N\\OS(=O)(=O)c2ccc(C)cc2)C=CC1=O", "values": [{"measurement": "AC50", "setting": "INS1", "value": "2.15 µM (active)"}, {"measurement": "EC50", "setting": "[6]", "value": "37.6 µM (active)"}, {"measurement": "EC50", "setting": "[7]", "value": "35.2 µM (active)"}, {"measurement": "AC50", "setting": "[8]", "value": "1.61 µM (active)"}, {"measurement": "IC50", "setting": "Beta Lactamase", "value": "31 µM (inactive)"}, {"measurement": "IC50", "setting": "[9]", "value": "3.42 µM (active)"}, {"measurement": "IC50", "setting": "[10]", "value": "5.11 µM (active)"}]}, {"smiles": "C[C@H](O)[C@@H]1C(=O)N2CCc3c([nH]c4ccccc34)[C@@H]2C[C@@H]1N(C)Cc1ccc2c(c1)OCO2", "values": [{"measurement": "IC50", "setting": "[11]", "value": "> 83.3 µM (inactive)"}, {"measurement": "IC50", "setting": "[12]", "value": "0.672 µM (active)"}, {"measurement": "IC50", "setting": "[13]", "value": "83.3 µM (inactive)"}, {"measurement": "IC50", "setting": "[14]", "value": "1.34 µM (active)"}]}, {"smiles": "Nc1ccc2cc3ccccc3cc2c1", "note": "[2-AMINOANTHRACENE]", "values": [{"measurement": "AC50", "setting": "HeLa", "value": "122 µM (active)"}, {"measurement": "AC50", "setting": "[15]", "value": "25.1 µM (inconclusive)"}, {"measurement": "AC50", "setting": "Cytochrome P450 3A4", "value": "15.8 µM (inconclusive)"}]}]}
